Measured values: patent US12357621B2, “BET inhibitors as a treatment for myelofibrosis” (Impact Biomedicines, Inc., priority 2021, dated 2025)
Like-named read-outs stand apart in the source and are kept apart here. Blank lines part the entries; values can stand above or below the molecule they belong to.

What was measured:
[1] = test system: primary human myelofibrosis samples; test: Colony formation assay in primary myelofibrosis samples (Example 2); type: cell-based; details: for IC50: Homo sapiens
Description: (§1) Bone marrow or peripheral blood mononuclear cells from myelofibrosis (MF) patients were directly seeded in semisolid Methocult media (H3404) with Compound (I) alone, (at concentrations ranging from 1.25 to 10 nM) or in combination with Fed (at 100 and 300 nM) or Rux (at 30 and 100 nM). Treatment was added at the beginning and maintained throughout the 14-day incubation period without compound washout.
(§2) Colony forming unit (CFU) data acquisition and automatic colony counting were performed using the STEMvision device and software (StemCell Technologies, Vancouver, Canada). Counting corrections according to standard criteria were done manually by a trained user. GraphPad Prism 7 was used for data plotting and analysis.

[2] = test system: bone marrow CD34+ cells from healthy volunteers; test: Colony-forming assay with normal hematopoietic progenitors (Example 2); type: cell-based; details: Homo sapiens, 336 h, healthy donors, 14 days
Description: as §1
To test the effects of Compound (I) on the functionality of normal hematopoietic progenitors, colony-forming assays were also done with bone marrow CD34^+ cells from healthy volunteers using the same conditions of treatment as described for MF samples.
as §2

[3] = test system: HEL92.1.7 cells; test: CellTiter-Glo proliferation/viability assay, single agent and JAKi combination (Example 1); type: cell-based; details: single agent; for IC50: 3 days incubation, CTG
Description: (§3) HEL92.1.7 and SET-2 are post-MPN secondary acute myeloid leukemia (sAML) cell lines that harbor the JAK2 V617F mutation and serve as cell line models of the malignant clones driving disease in MPNs.
(§4) HEL92.1.792.1.7 (post-MPN sAML), a homozygous mutant (V617F), SET-2 (post-MPN sAML), a heterozygous mutant (V617F), were cultured in Roswell Park Memorial Institute (RPMI) 1640 medium (ATCC) supplemented with 10% or 20% fetal b ovine serum (FBS) (Corning) for HEL92.1.792.17 or SET-2 respectively, 2 mM L-glutamine (L-glu) (Gibco), and non-essential amino acid 1× (NEAA) cell culture supplement (Gibco). WI-38 primary lung fibroblastWI-38 were cultured in Eagle's Minimum Essential Medium (EMEM) (ATCC) with 10% FBS, 2 mM L-glu, and 1× NEAA.
(§5) CellTiter-Glo® (CTG), a luminescent dye that measures adenosine-5′-triphosphate (ATP), was used to quantify the cell proliferation in the 3 cell types in duplicate. Compound (I) was pre-spotted into 384-well plates (diluted in final dimethyl sulfoxide [DMSO] concentration of 0.1% for assay volume of 50 μL). A 10-point dose-response starting at […] with a 4-fold dilution that included one DMSO point and nine drug points was tested for each cell line. The JAK inhibitors (JAKi) Rux and Fed were also pre-spotted at concentrations of 0, 0.03, 0.1, 0.3, and 0.6 μM and HEL92.1.7 constant for each 10-point the Compound (I) dose-response curve (DRC) to produce five compounds of formula (I) DRCs for each JAKi in each cell line.
(§6) A cell suspension volume of 50 μL at their respective seeding densities was added to 384-well plates containing Compound (I) plus JAKi. The effect of Compound (I) single agent or JAKi combination on the proliferation/viability of cells was assessed after 3 days of incubation. Twenty-five microliters of CTG per well was then dispensed to the cell suspension, and ATP released by viable cells was measured after a 30-minute incubation as relative luminescence units (RLU) using an EnVision plate reader (PerkinElmer, Covina, CA). Cytotoxicity was indicated by a lower ATP level in the media after 3-day drug treatment compared to the Day 0 ATP level. Day 0 CTG was read for HEL92.1. and SET-2 suspension cell lines while the Day 0 CTG read for WI-38 could not be read because it is an adherent cell line.
(§7) Percent growth (% Growth) was calculated with the equation [% Growth=(Day 5 RLU—Day 0 RLU)/(Day 0 RLU)] while percent DMSO (% DMSO) was calculated with the equation [% DMSO=(Treatment RLU/DMSO RLU)×100]. All data was analyzed by GraphPad Prism 7 with the XY analyses nonlinear regression curve fit using the parameters for “log(inhibitor) vs. response—Variable slope (four parameters).” Cytotoxicity was called if any part of the DRC CTG signal went below the Day 0 CTG read and cytostatic effects were indicated by the DRC CTG signal staying above the Day 0 line.
(§8) Combination analysis was performed with software Combenefit version 2.021. Combination matrix plots describing additivity effects were generated with the Highest Single-Agent (HSA) model, combination matrix plots describing synergy effects were generated with the Bliss model, and the HSA and Bliss scores for each combination matrix plot were tabulated. An arbitrary cut off-of 10 for HSA and Bliss scores was used to reflect significant additivity and synergy, respectively. […]

[4] = test system: SET-2 cells; test: as above; type: cell-based; details: single agent
Description: as §3, §4, §5, §6, §7, §8

[5] = First-in-human PK study of Compound (I) (Example 6); type: in vivo; details: for Cmax: Cycle 2 Day 5, 5 days on/2 days off, read-out: Cmax Cycle 2 Steady State (geometric mean)
Description: A first-in-human study was conducted on Compound (I) with select advanced tumors and hematologic malignancies. PK data was available from 65 subjects across 5 doses and 3 schedules. Intensive samples were collected on Cycle 1 Day 1 and Cycle 2 Day 5, Day 7, or Day 14 based on dosing schedule (5 days on/2 days off, 7 days on/14 days off, and 14 days on/7 days off).

[6] = test system: HEL92.1.7 cells; test: CellTiter Glo cell viability assay (Example 5); type: cell-based; details: for IC50: Homo sapiens
Description: (§9) Cells were seeded in 96-well plates at 10,000 cells per well in 100 μL of media containing either 0.1% DMSO or varying concentrations of drug. Cell viability was determined 3 days and 5 days later via the CellTiter GloLuminescent Cell Viability Assay from Promega (Madison, WI) according to the manufacturer's protocol. Specifically, 50 μL of reagent was added to each well and plates were incubated for 10 minutes in the dark to stabilize the luminescent signal. Luminescence was then detected using a chemiluminescence detection system (EnVision Multimode Microplate Reader; PerkinElmer).

[7] = test system: SET-2 cells; test: CellTiter Glo cell viability assay (Example 5); type: cell-based; details: for IC50: Homo sapiens
Description: as §9

[8] = test system: cell models expressing mutationally active JAK2V617F or FLT3ITD; details: cited from earlier work
[9] = test system: mouse models of JAK2V617F-driven myeloproliferative disease; details: in vivo; cited from earlier work
[10] = 125 mg QD; clinical studies; cited from earlier work

IC50 ([1]; sample MF 18 (JAK2), ruxolitinib alone, read-out: IC50 RUX): 35.5 nM
IC50 ([1]; sample MF 22 (WT), ruxolitinib alone, read-out: IC50 RUX): 212 nM
IC50 ([1]; sample MF 29 (JAK2), ruxolitinib alone, read-out: IC50 RUX): 212 nM
IC50 ([1]; sample MF 31 (CALR), ruxolitinib alone, read-out: IC50 RUX): 284 nM
IC50 ([1]; sample MF 33 (CALR), ruxolitinib alone, read-out: IC50 RUX): 862 nM
IC50 ([1]; sample MF 38 (WT), ruxolitinib alone, read-out: IC50 RUX): 217 nM
IC50 ([1]; sample MF 54 (JAK2), ruxolitinib alone, read-out: IC50 RUX): 686 nM
IC50 ([1]; sample MF 63 (CALR), ruxolitinib alone, read-out: IC50 RUX): 70.6 nM
IC50 ([1]; sample MF 76 (JAK2), ruxolitinib alone, read-out: IC50 RUX): 686 nM
IC50 ([1]; sample MF 77 (JAK2), ruxolitinib alone, read-out: IC50 RUX): 528 nM
Structure (SMILES): N#CC[C@H](C1CCCC1)n1cc(-c2ncnc3[nH]ccc23)cn1 [ruxolitinib]

IC50 ([1]; 336 h, range among 10 primary human myelofibrosis samples, 14 days, read-out: IC50 values for inhibition of colonies): 1.25 to 4.46 nM
IC50 ([1]; 336 h, sample MF 18 (JAK2), single agent, colony formation 14 days, read-out: IC50 Compound (I)): 1.58 nM
IC50 ([1]; 336 h, sample MF 22 (WT), single agent, colony formation 14 days, read-out: IC50 Compound (I)): 3.7 nM
IC50 ([1]; 336 h, sample MF 29 (JAK2), single agent, colony formation 14 days, read-out: IC50 Compound (I)): 2.56 nM
IC50 ([1]; 336 h, sample MF 31 (CALR), single agent, colony formation 14 days, read-out: IC50 Compound (I)): 2.02 nM
IC50 ([1]; 336 h, sample MF 33 (CALR), single agent, colony formation 14 days, read-out: IC50 Compound (I)): 4.46 nM
IC50 ([1]; 336 h, sample MF 38 (WT), single agent, colony formation 14 days, read-out: IC50 Compound (I)): 2.11 nM
IC50 ([1]; 336 h, sample MF 54 (JAK2), single agent, colony formation 14 days, read-out: IC50 Compound (I)): 1.25 nM
IC50 ([1]; 336 h, sample MF 63 (CALR), single agent, colony formation 14 days, read-out: IC50 Compound (I)): 2.6 nM
IC50 ([1]; 336 h, sample MF 76 (JAK2), single agent, colony formation 14 days, read-out: IC50 Compound (I)): 3.43 nM
IC50 ([1]; 336 h, sample MF 77 (JAK2), single agent, colony formation 14 days, read-out: IC50 Compound (I)): 1.27 nM
Cmax ([5]; dose 0.75 mg): 272 nM
Cmax ([5]; dose 1.25 mg): 577 nM
Cmax ([5]; dose 2.0 mg): 892 nM
Cmax ([5]; human, in vivo, dose 3.0 mg): 1200 nM
Cmax ([5]; human, in vivo, dose 4.5 mg): 1840 nM
half-life ([5]; in vivo, single dose, 5 days on/2 days off schedule, human, read-out: terminal half-life (converted)): ~2.67 days
Structure (SMILES): Cc1nnn(C)c1-c1cnc2c3ccc(C(C)(C)O)cc3n([C@H](c3ccccc3)C3CCOCC3)c2c1 [Compound (I)]
IC50 ([2]; read-out: IC50 for inhibition of BFU-E): ~2.3 nM
IC50 ([2]; CFU-GM, read-out: IC50 for inhibition of CFU-GM): ~3 nM
therapeutic index (TI) ([1]; in 7 out of 10 MF samples, ratio of IC50 in MF sample and average IC50 in normal bone marrow CD34+ cells): > 1 fold
IC50 ([3]; Homo sapiens, HEL 92.1.7, 72 h): 6.2 nM
IC50 [3]: 5.6 nM
cytotoxic vs cytostatic effect ([3]; CTG signal vs Day 0): cytotoxic effects
IC50 ([4]; Homo sapiens, 72 h, 3 days incubation, CTG): 1.9 nM
cytotoxic vs cytostatic effect ([4]; CTG signal vs Day 0): cytotoxic effects
IC50 ([6]; HEL 92.1.7, 72 h, Day 3, read-out: single agent IC50): 15 nM
IC50 ([6]; HEL 92.1.7, 120 h, Day 5, read-out: single agent IC50): 19 nM
activity compared to CPI-0610 ([6]; viability): better activity
IC50 ([7]; 72 h, Day 3, read-out: single agent IC50): 2.8 nM
IC50 ([7]; 120 h, Day 5, read-out: single agent IC50): 2.4 nM
activity compared to CPI-0610 ([7]; viability): better activity

Structure (SMILES): Cc1cnc(Nc2ccc(OCCN3CCCC3)cc2)nc1Nc1cccc(S(=O)(=O)NC(C)(C)C)c1 [fedratinib]
apoptotic cell death [8]: induced
cell proliferation [8]: inhibited
phosphorylation of STAT3 and STAT5 proteins [8]: reduced
IC50 ([1]; sample MF 18 (JAK2), fedratinib alone, read-out: IC50 FEDR): 146 nM
IC50 ([1]; sample MF 22 (WT), fedratinib alone, read-out: IC50 FEDR): 309 nM
IC50 ([1]; sample MF 29 (JAK2), fedratinib alone, read-out: IC50 FEDR): 472 nM
IC50 ([1]; sample MF 31 (CALR), fedratinib alone, read-out: IC50 FEDR): 908 nM
IC50 ([1]; sample MF 33 (CALR), fedratinib alone, read-out: IC50 FEDR): 930 nM
IC50 ([1]; sample MF 38 (WT), fedratinib alone, read-out: IC50 FEDR): 931 nM
IC50 ([1]; sample MF 54 (JAK2), fedratinib alone, read-out: IC50 FEDR): 381 nM
IC50 ([1]; sample MF 63 (CALR), fedratinib alone, read-out: IC50 FEDR): 779 nM
IC50 ([1]; sample MF 76 (JAK2), fedratinib alone, read-out: IC50 FEDR): > 1000 nM
IC50 ([1]; sample MF 77 (JAK2), fedratinib alone, read-out: IC50 FEDR): 695 nM
phosphorylation of STAT3/5 [9]: blocked
survival, WBC counts, hematocrit, splenomegaly, and fibrosis [9]: improved

Structure (SMILES): Cc1noc2c1-c1ccccc1C(c1ccc(Cl)cc1)=N[C@H]2CC(N)=O [CPI-0610]
Cmax [10]: 4 µM
T1/2 [10]: 16 h
